{"source": "paper PMC4445981", "about": "“The glutamate transport inhibitor DL-Threo-β-Benzyloxyaspartic acid (DL-TBOA) differentially affects SN38- and oxaliplatin-induced death of drug-resistant colorectal cancer cells” (BMC Cancer, 2015)", "format_in_all_cases": "cell-based, human", "key": {"parental LoVo cells": {"system": "parental LoVo cells", "assay": "MTT viability assay, parental LoVo cells", "settings": "350 μM DL-TBOA, 48 h", "description": "Fig. 2 DL-TBOA augments SN38-induced death in SN38-resistant cells, but protects oxaliplatin-resistant cells from oxaliplatin-induced death. Parental and drug-resistant HCT116 and LoVo cell lines seeded in 96-well dishes were exposed to SN38 (0.1 or 0.8 μM) or oxaliplatin (0.8 or 20 μM), alone or in combination with 70 or 350 μM DL-TBOA as indicated, for 48 h. Viability was assessed by MTT assay. a-b Parental HCT116 cells, (c) SN38 resistant HCT116 cells, (d) Oxaliplatin-resistant HCT116 cells, (e-f) Parental LoVo cells, (g) SN38 resistant LoVo cells, (h) Oxaliplatin-resistant LoVo cells. Data are means with S.E.M. error bars of 3 independent experiments. *) p < 0.05, **) p < 0.01, ***) p < 0.001 compared to the control group without drug or TBOA treatment; #) p < 0.05 compared to controls without TBOA treatment. One-way ANOVA followed by Dunnett post-test\nCells were seeded at appropriate density (LoVo 10,000, and HCT116 5000 cells /100 μl) in growth medium in 96-well plates. Next day, cells were treated with inhibitors and/or chemotherapy in a total volume of 200 μl in growth medium and incubated for 48 h at 37 °C, 5 % CO2. […] Absorbance was measured in an ELISA plate reader (Thermo Scientific MultiScan FC) at 550 nm. Data were background subtracted and % viability relative to controls calculated."}, "[1]": {"system": "retinoblastoma protein phosphorylation on Ser 807/811 (pRb)", "assay": "pRb (Ser 807/811) level by Western blotting", "description": "Cells were grown to a confluence of 60-80 % and treated with chemotherapy, siRNA- or plasmid transfection as indicated. Cells were washed once in PBS, lysed in lysis buffer (1 % SDS, 0.1 M Tris pH 7.5, and 1 mM Na3VO4), sonicated, and protein content determined (DC assay, BioRad). Lysates were mixed 2:1with NuPage LDS sample buffer (Invitrogen). SDS-PAGE was carried out in NOVEX chambers with NuPAGE 10 % Bis-Tris gels under reducing and denaturing conditions, using BenchMark protein ladder (Invitrogen), and 15 μg protein per lane. Proteins were transferred to PVDF membranes, which were Ponceau S stained, blocked for 1 h at 37 °C in 5 % nonfat dry milk in TBST (0.01 M Tris/HCl, 0.15 M NaCl, 0.1 % Tween 20, pH 7.4), incubated overnight at 4 °C with primary antibodies diluted in blocking buffer, washed in TBST, incubated with secondary antibodies for 1 h, washed in TBST, and developed using BCIP/NBT (KPL). Bands were scanned and quantified using UN-SCAN-IT (Silk Scientific).\nSupplementary file 12885_2015_1405_MOESM5_ESM.tiff: Additional file 5: Figure S5. Effects of DL-TBOA on proliferation after chemotherapy treatment. Parental and drug-resistant HCT116 (A) and LoVo (B) cell lines seeded in 6-well dishes were exposed to SN38 (0.8 μM) or oxaliplatin (20 μM) alone or in combination with 350 μM DL-TBOA as indicated, for 24 h. Equal amounts of protein per lane were separated by SDS-PAGE and the protein levels of phosphorylation of retinoblastoma protein on Ser 807/811 (pRb) were determined by Western blotting. Top: Representative Western blots, with β-actin as loading control. Bottom: Densitometric quantifications based on 3 independent experiments per condition. Data are means with S.E.M. error bars of 3 independent experiments. Two-way ANOVA with Tukey post-test."}, "[2]": {"system": "parental and drug-resistant HCT116 and LoVo cell lines", "assay": "Nucleus (DAPI) counting of adherent cells, OPERA confocal", "settings": "DL-TBOA 70 or 350 μM with SN38 or oxaliplatin, 48 h", "description": "Cells were seeded in 96-well plates (Greiner Bio) one day prior to experiments. Cells were treated with chemotherapy and/or inhibitors as indicated and incubated for 48 h. Medium was aspirated, and cells were washed gently in ice cold PBS, fixed in 2 % paraformaldehyde, washed in PBS, and nuclei stained by 5 min incubation with DAPI. Plates were scanned using an OPERA high-throughput microscope (PerkinElmer). Nucleus counting was performed using proprietary OPERA software, based on 100 points per well, and cell counts from non-treated cells as controls.\nSupplementary file 12885_2015_1405_MOESM2_ESM.tiff: Additional file 2: Figure S2. Nucleus counting after treatment of parental and drug-resistant HCT116 and LoVo cells with DL-TBOA. Parental and drug-resistant HCT116 and LoVo cell lines seeded in 96-well dishes were exposed to SN38 (0.1 or 0.8 μM) or oxaliplatin (0.8 or 20 μM), alone or in combination with 70 or 350 μM DL-TBOA as indicated, for 48 h. Cells were washed in PBS, fixed in 2 % paraformaldehyde and nuclei were stained with DAPI. The number of adherent cells was determined by automated counting using an OPERA confocal microscope. (A-B) Parental HCT116 cells. (C) SN38 resistant HCT116 cells. (D) Oxaliplatin-resistant HCT116 cells. (E-F) Parental LoVo cells. (G) SN38 resistant LoVo cells. (H) Oxaliplatin-resistant LoVo cells. […]"}}}
{"smiles": "N[C@H](C(=O)O)[C@H](OCc1ccccc1)C(=O)O", "note": "(racemic) [TBOA, DL-Threo-β-Benzyloxyaspartic acid]", "values": [{"measurement": "effect on loss of viability induced by 0.8 μM oxaliplatin", "setting": "parental LoVo cells", "value": "essentially abolished the loss of viability"}, {"measurement": "effect on cellular level of phospho-Retinoblastoma protein", "setting": "[1]; DL-TBOA, HCT116 and LoVo cells", "value": "did not significantly alter"}, {"measurement": "effect on pRb level after oxaliplatin treatment", "setting": "[1]; all cell types except oxaliplatin-resistant HCT116, 350 μM DL-TBOA + 20 μM oxaliplatin, 24 h, not statistically significant", "value": "slightly but consistently decreased pRb levels"}, {"measurement": "effect on pRb level", "setting": "[1]; control conditions, both parental cell lines, 350 μM DL-TBOA, 24 h, not statistically significant", "value": "tended to increase pRb levels"}, {"measurement": "effect on number of surviving adherent cells after chemotherapy", "setting": "[2]", "value": "opposite effects of DL-TBOA on SN38- and oxaliplatin-induced loss of viability are also evident"}]}
